In patent publication US4870097A, “Pharmaceutical use of derivatives of tryptophan” (priority 1984, dated 1989):

Test system: activity of analgesic drugs
Assay: Hot plate test: potentiation of analgesic drugs
Format: in vivo, rats
Settings: analgesic alone i.p. (Prop 15, Oxy 50, Asa 100 mg/kg); for Positive Total X/25: 10'-60'
Description: The method is that described by Eddy et al. (J. Pharmac. Exp. Ther. 107, 385 (1953)).
Groups of five male rats having a weight of about 150 g and which have not been fasting are used.
The animals are placed on a metal plate which is on the bottom of a transparent cylinder heated to 55°±1° C. by an azeotropic boiling mixture (1:1 acetone-ethyl formate). The time which passes between the moment at which the animal is placed on the hot plate and the moment at which it licks its feet or tries to jump out of the cylinder is defined as the reaction time. The control reaction time is measured 10 and 5 minutes before the administration of the drugs and 10, 20, 30, 45, 60, 90 minutes afterwards. The animals are left on the plate for a maximum period of 30 seconds.
The response to the administration of the product is considered positive if at least a doubling of the normal reaction time is seen. The results obtained are given in Table 2 which records the groups treated, the dose administered and the stay times on the plate expressed as the number of positive responses over the number treated.

| Structure (SMILES) | positive responses over the number treated, 10' | Positive Total X/25 | positive responses over the number treated, 20' | positive responses over the number treated, 30' | positive responses over the number treated, 45' | positive responses over the number treated, 60' |
| --- | --- | --- | --- | --- | --- | --- |
| CCCCC1C(=O)N(c2ccccc2)N(c2ccc(O)cc2)C1=O (stereo not drawn) [Oxyphenylbutazone, reference compound] | 2/5 | 7 | 1/5 | 2/5 | 2/5 | 0/5 |
| CC(=O)Oc1ccccc1C(=O)O [Acetylsalicylic acid, reference compound] | 1/5 | 7 | 2/5 | 2/5 | 2/5 | 0/5 |
| CCC(=O)O[C@](Cc1ccccc1)(c1ccccc1)[C@H](C)CN(C)C [Propoxyphene, reference compound] | 2/5 | 11 | 2/5 | 3/5 | 3/5 | 1/5 |
